{
  "source": "paper PMC5218480",
  "about": "(PLoS ONE, 2017)",
  "system": "MV-4-11 cells",
  "assay": "Gene expression microarray analysis (Affymetrix PrimeView) and GSEA",
  "assay_type": "cell-based, human",
  "parameters": "RFU PODN (11730768_x_at) / Fold change /veh PODN (11730768_x_at) / RFU LINC00158 (11744669_a_at) / Fold change /veh LINC00158 (11744669_a_at) / RFU DUSP10 (11751237_a_at) / Fold change /veh DUSP10 (11751237_a_at) / RFU ID3 (11757404_x_at) / Fold change /veh ID3 (11757404_x_at) / RFU PLEKHG5 (11737974_s_at) / Fold change /veh PLEKHG5 (11737974_s_at) / RFU LRRC4B (11730491_at) / Fold change /veh LRRC4B (11730491_at) / RFU GIMAP4 (11747438_a_at) / Fold change /veh GIMAP4 (11747438_a_at) / RFU KRT8 (11758183_x_at) / Fold change /veh KRT8 (11758183_x_at) / RFU CNN1 (11734310_a_at) / Fold change /veh CNN1 (11734310_a_at) / RFU VPS37D (11726825_at) / Fold change /veh VPS37D (11726825_at) / RFU C10orf10 (11716522_x_at) / Fold change /veh C10orf10 (11716522_x_at) / RFU KIR2DL2 /// KIR2DL4 /// KIR2DL5A /// KIR2DL5B /// KIR2DS1 /// KIR2DS2 /// KIR2DS3 /// KIR2DS4 /// KIR3DL3 /// KIR3DL3 /// KIR3DS1 (11738374_at) / Fold change /veh KIR2DL2 /// KIR2DL4 /// KIR2DL5A /// KIR2DL5B /// KIR2DS1 /// KIR2DS2 /// KIR2DS3 /// KIR2DS4 /// KIR3DL3 /// KIR3DL3 /// KIR3DS1 (11738374_at) / RFU C1QL1 (11718748_at) / Fold change /veh C1QL1 (11718748_at) / RFU TMPRSS4 (11747572_a_at) / Fold change /veh TMPRSS4 (11747572_a_at) / RFU HAMP (11756126_x_at) / Fold change /veh HAMP (11756126_x_at) / RFU RNFT2 (11725882_a_at) / Fold change /veh RNFT2 (11725882_a_at) / RFU NR4A2 (11747474_a_at) / Fold change /veh NR4A2 (11747474_a_at) / RFU ABCC12 (11746883_a_at) / Fold change /veh ABCC12 (11746883_a_at) / RFU TMEM136 (11760407_x_at) / Fold change /veh TMEM136 (11760407_x_at) / RFU CLDN22 /// WWC2 (11732394_at) / Fold change /veh CLDN22 /// WWC2 (11732394_at) / RFU HLA-DPB1 (11760878_x_at) / Fold change /veh HLA-DPB1 (11760878_x_at) / RFU SPINT1 (11716480_a_at) / Fold change /veh SPINT1 (11716480_a_at) / RFU GAP43 (11754022_s_at) / Fold change /veh GAP43 (11754022_s_at) / RFU A4GNT (11735810_at) / Fold change /veh A4GNT (11735810_at) / RFU PRB3 (11715151_x_at) / Fold change /veh PRB3 (11715151_x_at) / RFU TUBB4B (11761932_at) / Fold change /veh TUBB4B (11761932_at) / RFU CAPN14 (11732068_a_at) / Fold change /veh CAPN14 (11732068_a_at) / RFU TMCC2 (11721928_a_at) / Fold change /veh TMCC2 (11721928_a_at) / RFU IRGQ (11745062_a_at) / Fold change /veh IRGQ (11745062_a_at) / RFU FAM174B (11720279_a_at) / Fold change /veh FAM174B (11720279_a_at) / RFU TMPRSS4 (11748680_a_at) / Fold change /veh TMPRSS4 (11748680_a_at) / RFU FAM212B (11763350_a_at) / Fold change /veh FAM212B (11763350_a_at) / RFU PLEKHG5 (11743358_a_at) / Fold change /veh PLEKHG5 (11743358_a_at) / RFU ZSCAN30 (11745921_a_at) / Fold change /veh ZSCAN30 (11745921_a_at) / RFU CMKLR1 (11741424_a_at) / Fold change /veh CMKLR1 (11741424_a_at) / RFU LOC101060620 /// MAPK8IP1 (11723275_at) / Fold change /veh LOC101060620 /// MAPK8IP1 (11723275_at) / RFU SPTSSB (11747773_x_at) / Fold change /veh SPTSSB (11747773_x_at) / RFU PRSS12 (11739890_at) / Fold change /veh PRSS12 (11739890_at) / RFU BIN1 (11741810_x_at) / Fold change /veh BIN1 (11741810_x_at) / RFU WNT11 (11732464_a_at) / Fold change /veh WNT11 (11732464_a_at) / RFU C10orf10 (11716521_a_at) / Fold change /veh C10orf10 (11716521_a_at) / RFU C5orf56 (11738089_at) / Fold change /veh C5orf56 (11738089_at) / RFU CYB561 (11721691_x_at) / Fold change /veh CYB561 (11721691_x_at) / RFU ANKRD19P (11752326_a_at) / Fold change /veh ANKRD19P (11752326_a_at) / RFU OR2T12 /// OR2T33 /// OR2T8 (11738714_s_at) / Fold change /veh OR2T12 /// OR2T33 /// OR2T8 (11738714_s_at) / RFU VCAN (11748164_a_at) / Fold change /veh VCAN (11748164_a_at) / RFU JSRP1 (11732532_at) / Fold change /veh JSRP1 (11732532_at) / RFU KRTAP10-11 (11738290_x_at) / Fold change /veh KRTAP10-11 (11738290_x_at) / RFU MYO3A (11730013_a_at) / Fold change /veh MYO3A (11730013_a_at) / RFU EBF3 (11725865_a_at) / Fold change /veh EBF3 (11725865_a_at) / RFU CAMK2N1 (11719241_x_at) / Fold change /veh CAMK2N1 (11719241_x_at) / RFU C5orf56 (11738088_a_at) / Fold change /veh C5orf56 (11738088_a_at) / RFU OLFML3 (11715873_a_at) / Fold change /veh OLFML3 (11715873_a_at) / RFU LOC100653217 /// NTM (11731650_a_at) / Fold change /veh LOC100653217 /// NTM (11731650_a_at) / RFU MAPK11 (11762145_a_at) / Fold change /veh MAPK11 (11762145_a_at) / RFU FIZ1 (11724087_x_at) / Fold change /veh FIZ1 (11724087_x_at) / RFU OASL (11726364_x_at) / Fold change /veh OASL (11726364_x_at) / RFU SOX15 (11748057_x_at) / Fold change /veh SOX15 (11748057_x_at) / RFU CD79A (11719716_a_at) / Fold change /veh CD79A (11719716_a_at) / RFU HIST1H1D (11736915_at) / Fold change /veh HIST1H1D (11736915_at) / RFU CASKIN2 (11723855_a_at) / Fold change /veh CASKIN2 (11723855_a_at) / RFU LOC730098 (11760151_x_at) / Fold change /veh LOC730098 (11760151_x_at) / RFU OR4N2 (11742367_at) / Fold change /veh OR4N2 (11742367_at) / RFU PRRT2 (11749266_a_at) / Fold change /veh PRRT2 (11749266_a_at) / RFU SNX32 (11753110_a_at) / Fold change /veh SNX32 (11753110_a_at) / RFU CDHR5 (11726645_a_at) / Fold change /veh CDHR5 (11726645_a_at) / RFU RCAN1 (11760418_a_at) / Fold change /veh RCAN1 (11760418_a_at) / RFU FAM167A (11723789_a_at) / Fold change /veh FAM167A (11723789_a_at) / RFU FAM26E (11764081_at) / Fold change /veh FAM26E (11764081_at) / RFU ISYNA1 (11749810_s_at) / Fold change /veh ISYNA1 (11749810_s_at) / RFU ACY1 (11761880_at) / Fold change /veh ACY1 (11761880_at) / RFU 11764098_at / Fold change /veh 11764098_at / RFU SAMD14 (11745864_x_at) / Fold change /veh SAMD14 (11745864_x_at) / RFU NPB (11741838_a_at) / Fold change /veh NPB (11741838_a_at) / RFU TMPRSS6 (11731388_a_at) / Fold change /veh TMPRSS6 (11731388_a_at) / RFU KRTAP10-2 (11738614_at) / Fold change /veh KRTAP10-2 (11738614_at) / RFU ARHGAP8 /// PRR5-ARHGAP8 (11727945_x_at) / Fold change /veh ARHGAP8 /// PRR5-ARHGAP8 (11727945_x_at) / RFU KRTAP5-7 /// NADSYN1 (11734609_at) / Fold change /veh KRTAP5-7 /// NADSYN1 (11734609_at) / RFU RASL12 (11751679_a_at) / Fold change /veh RASL12 (11751679_a_at) / RFU CDKN2B (11736163_a_at) / Fold change /veh CDKN2B (11736163_a_at) / RFU PRF1 (11729649_at) / Fold change /veh PRF1 (11729649_at) / RFU, ZNF638 /// ZNF638-IT1 / Fold change vs veh, ZNF638 /// ZNF638-IT1 / RFU, PANK3 / Fold change vs veh, PANK3 / RFU, SH3YL1 / Fold change vs veh, SH3YL1 / RFU, ZEB2 / Fold change vs veh, ZEB2 / RFU, NRIP1 / Fold change vs veh, NRIP1 / RFU, PTTG1IP / Fold change vs veh, PTTG1IP / RFU, CAPN2 / Fold change vs veh, CAPN2 / RFU, MED14 / Fold change vs veh, MED14 / RFU, SNORA58 / Fold change vs veh, SNORA58 / RFU, C1orf63 / Fold change vs veh, C1orf63 / RFU, LRRFIP1 / Fold change vs veh, LRRFIP1 / RFU, NDUFAF7 / Fold change vs veh, NDUFAF7 / RFU, SLC12A2 / Fold change vs veh, SLC12A2 / RFU, IBTK / Fold change vs veh, IBTK / RFU, ESF1 / Fold change vs veh, ESF1 / Fold change vs veh, TMEM50B / RFU, TAOK1 / Fold change vs veh, TAOK1 / RFU, ACBD3 / Fold change vs veh, ACBD3 / RFU, TMA16 / Fold change vs veh, TMA16 / RFU, RWDD3 / Fold change vs veh, RWDD3 / RFU, BCAT1 / Fold change vs veh, BCAT1 / RFU, EDEM3 / Fold change vs veh, EDEM3 / RFU, TMEM33 / Fold change vs veh, TMEM33 / RFU, WDR75 / Fold change vs veh, WDR75 / RFU, AHCTF1 / Fold change vs veh, AHCTF1 / RFU, TFRC / Fold change vs veh, TFRC / RFU, ZDHHC17 / Fold change vs veh, ZDHHC17 / RFU, NOM1 / Fold change vs veh, NOM1 / RFU, ARL8B / Fold change vs veh, ARL8B / RFU, ZBTB11 / Fold change vs veh, ZBTB11 / RFU, TAMM41 / Fold change vs veh, TAMM41 / RFU, KIAA1704 /// LOC100996395 / Fold change vs veh, KIAA1704 /// LOC100996395 / RFU, ING1 / Fold change vs veh, ING1 / RFU, TRMT61B / Fold change vs veh, TRMT61B / RFU, FUBP3 / Fold change vs veh, FUBP3 / RFU, TP53 / Fold change vs veh, TP53 / RFU, TNKS2 / Fold change vs veh, TNKS2 / RFU, ZFP14 / Fold change vs veh, ZFP14 / RFU, ACTR2 / Fold change vs veh, ACTR2 / RFU, PPP3R1 / Fold change vs veh, PPP3R1 / RFU, PIK3R1 / Fold change vs veh, PIK3R1 / RFU, HNRNPA1 / Fold change vs veh, HNRNPA1 / RFU, RNF170 / Fold change vs veh, RNF170 / RFU, ZNF28 / Fold change vs veh, ZNF28 / RFU, RNGTT / Fold change vs veh, RNGTT / RFU, OGT / Fold change vs veh, OGT / RFU, BRD1 / Fold change vs veh, BRD1 / RFU, MARS / Fold change vs veh, MARS / RFU, ZNF655 / Fold change vs veh, ZNF655 / RFU, FAHD1 / Fold change vs veh, FAHD1 / RFU, BDP1 / Fold change vs veh, BDP1 / RFU, LRRCC1 / Fold change vs veh, LRRCC1 / RFU, ARID1A / Fold change vs veh, ARID1A / RFU, ZNF146 / Fold change vs veh, ZNF146 / RFU, ZNF330 / Fold change vs veh, ZNF330 / RFU, GPN3 / Fold change vs veh, GPN3 / RFU, C9orf123 / Fold change vs veh, C9orf123 / RFU, N4BP2L2 / Fold change vs veh, N4BP2L2 / RFU, ARFIP1 / Fold change vs veh, ARFIP1 / RFU, FAM179B / Fold change vs veh, FAM179B / RFU, BCL10 / Fold change vs veh, BCL10 / RFU, UHRF1BP1L / Fold change vs veh, UHRF1BP1L / RFU, BET1 / Fold change vs veh, BET1 / RFU, CNOT2 / Fold change vs veh, CNOT2 / RFU, ZNF268 / Fold change vs veh, ZNF268 / Fold change vs veh, ZNF507 / RFU, DGCR2 / Fold change vs veh, DGCR2 / RFU, WDSUB1 / Fold change vs veh, WDSUB1 / Fold change vs veh, HSP90B1 /// MIR3652 / RFU, ADSS / Fold change vs veh, ADSS / RFU, GK / Fold change vs veh, GK / RFU, ZNF148 / Fold change vs veh, ZNF148 / RFU, TAF9 / Fold change vs veh, TAF9 / RFU, SLC1A5 / Fold change vs veh, SLC1A5 / RFU, SLMO2 / Fold change vs veh, SLMO2 / RFU, ABCC4 / Fold change vs veh, ABCC4 / RFU, LOC101060439 /// RAP1B / Fold change vs veh, LOC101060439 /// RAP1B / RFU, RFX7 / Fold change vs veh, RFX7 / RFU, GTPBP10 / Fold change vs veh, GTPBP10 / RFU, CNEP1R1 / Fold change vs veh, CNEP1R1 / RFU, BIVM-ERCC5 /// ERCC5 / Fold change vs veh, BIVM-ERCC5 /// ERCC5 / RFU, ILF3 / Fold change vs veh, ILF3 / RFU 11762660_at / Fold change /veh 11762660_at / RFU VCAN (11757783_s_at) / Fold change /veh VCAN (11757783_s_at) / RFU DDX43 (11728927_at) / Fold change /veh DDX43 (11728927_at) / RFU KRT8 (11758188_x_at) / Fold change /veh KRT8 (11758188_x_at) / RFU NKD1 (11759106_at) / Fold change /veh NKD1 (11759106_at) / RFU SRD5A1 (11742802_a_at) / Fold change /veh SRD5A1 (11742802_a_at) / RFU TPSAB1 /// TPSB2 (11721975_s_at) / Fold change /veh TPSAB1 /// TPSB2 (11721975_s_at) / RFU GSTM3 (11746129_a_at) / Fold change /veh GSTM3 (11746129_a_at) / RFU IL23R (11737362_x_at) / Fold change /veh IL23R (11737362_x_at) / RFU TMEM51 (11727254_a_at) / Fold change /veh TMEM51 (11727254_a_at) / RFU PIWIL2 (11732686_x_at) / Fold change /veh PIWIL2 (11732686_x_at) / RFU ORM1 (11744905_x_at) / Fold change /veh ORM1 (11744905_x_at) / RFU CCDC152 (11743942_at) / Fold change /veh CCDC152 (11743942_at) / RFU ECM1 (11717891_a_at) / Fold change /veh ECM1 (11717891_a_at) / RFU IL23R (11748794_a_at) / Fold change /veh IL23R (11748794_a_at) / RFU TNFAIP8L3 (11732012_x_at) / Fold change /veh TNFAIP8L3 (11732012_x_at) / RFU MBOAT4 (11741988_at) / Fold change /veh MBOAT4 (11741988_at) / RFU 11764193_at / Fold change /veh 11764193_at / RFU TMEM53 (11763286_at) / Fold change /veh TMEM53 (11763286_at) / RFU MAGEB2 (11727129_at) / Fold change /veh MAGEB2 (11727129_at) / RFU TMEM200A (11744735_a_at) / Fold change /veh TMEM200A (11744735_a_at) / RFU CCDC152 (11751479_a_at) / Fold change /veh CCDC152 (11751479_a_at) / RFU FAM211A (11726209_a_at) / Fold change /veh FAM211A (11726209_a_at) / RFU RGS16 (11746705_a_at) / Fold change /veh RGS16 (11746705_a_at) / RFU VCAN (11755009_s_at) / Fold change /veh VCAN (11755009_s_at) / RFU RHOB (11743442_s_at) / Fold change /veh RHOB (11743442_s_at) / RFU RGS16 (11720943_a_at) / Fold change /veh RGS16 (11720943_a_at) / RFU RGS16 (11720944_at) / Fold change /veh RGS16 (11720944_at) / RFU, VPS4B / Fold change vs veh, VPS4B / RFU, CREB1 / Fold change vs veh, CREB1 / RFU, DNAJC13 / Fold change vs veh, DNAJC13 / RFU, GNAQ / Fold change vs veh, GNAQ / RFU, CDK5R1 / Fold change vs veh, CDK5R1 / RFU, ZRANB3 / Fold change vs veh, ZRANB3 / RFU, CUL4A / Fold change vs veh, CUL4A / RFU, CCNY / Fold change vs veh, CCNY / RFU, UFL1 / Fold change vs veh, UFL1 / RFU, COG3 / Fold change vs veh, COG3 / RFU, DIAPH2 / Fold change vs veh, DIAPH2 / RFU, SKA2 / Fold change vs veh, SKA2 / RFU, AFF3 / Fold change vs veh, AFF3 / RFU, LMF1 / Fold change vs veh, LMF1 / RFU, IPO11 / Fold change vs veh, IPO11 / RFU, DFFB / Fold change vs veh, DFFB / RFU, FOXP1 / Fold change vs veh, FOXP1 / RFU, CARD8 / Fold change vs veh, CARD8 / RFU, STRN3 / Fold change vs veh, STRN3 / RFU, ADK / Fold change vs veh, ADK / RFU, RASSF2 / Fold change vs veh, RASSF2 / RFU, WIPF1 / Fold change vs veh, WIPF1 / RFU, LARP1B / Fold change vs veh, LARP1B / RFU, RASA1 / Fold change vs veh, RASA1 / RFU, RB1 / Fold change vs veh, RB1 / RFU, PPFIA1 / Fold change vs veh, PPFIA1 / RFU, MAT2A / Fold change vs veh, MAT2A / RFU, CCT5 / Fold change vs veh, CCT5 / RFU, WDR92 / Fold change vs veh, WDR92 / RFU, CUX1 / Fold change vs veh, CUX1 / RFU, TTC7A / Fold change vs veh, TTC7A / RFU, TMEM135 / Fold change vs veh, TMEM135 / RFU, DEPTOR / Fold change vs veh, DEPTOR / RFU, CPM / Fold change vs veh, CPM / RFU, DNAJB6 / Fold change vs veh, DNAJB6 / RFU, CACNA2D3 / Fold change vs veh, CACNA2D3 / RFU, DTX4 / Fold change vs veh, DTX4 / RFU, TFCP2 / Fold change vs veh, TFCP2 / RFU, GMCL1 /// GMCL1P1 / Fold change vs veh, GMCL1 /// GMCL1P1 / RFU, AEBP2 / Fold change vs veh, AEBP2 / RFU, SNHG1 /// SNORD22 /// SNORD25 /// SNORD26 /// SNORD27 /// SNORD28 /// SNORD29 /// SNORD31 / Fold change vs veh, SNHG1 /// SNORD22 /// SNORD25 /// SNORD26 /// SNORD27 /// SNORD28 /// SNORD29 /// SNORD31 / Fold change (Aza/veh), C12orf56 (ProbeSet 11735607_a_at) / Fold change (ACY-1035/veh), C12orf56 (ProbeSet 11735607_a_at) / Fold change (Aza/veh), FGFR1OP (ProbeSet 11751329_s_at) / Fold change (ACY-1035/veh), FGFR1OP (ProbeSet 11751329_s_at) / Fold change (Aza/veh), VPS36 (ProbeSet 11739960_a_at) / Fold change (ACY-1035/veh), VPS36 (ProbeSet 11739960_a_at) / RFU SYPL1 (11715823_x_at) / Fold change /veh SYPL1 (11715823_x_at) / RFU IGFBP7 (11715501_s_at) / Fold change /veh IGFBP7 (11715501_s_at) / RFU REEP3 (11722064_at) / Fold change /veh REEP3 (11722064_at) / RFU IGLL1 (11728026_x_at) / Fold change /veh IGLL1 (11728026_x_at): dose or concentration left out as unconfirmed",
  "conditions": "MV-4-11 cells, 48 hours",
  "data": [
    {"smiles": "Nc1ncn([C@@H]2O[C@H](CO)[C@@H](O)[C@H]2O)c(=O)n1", "note": "[azacitidine]", "values": [
      {"measurement": "Fold change /veh ACY1 (11761880_at)", "value": 1.09}
    ]}
  ]
}
